Laboratory results reported in ChEMBL document CHEMBL5042522, “One- and Two-Photon Uncaging of Carbon Monoxide (CO) with Real-Time Monitoring: On-Demand Carbazole-Based Dual CO-Releasing Platform to Test over Single and Combinatorial Approaches for the Efficient Regression of Orthotopic Murine Melanoma In Vivo” (J Med Chem, 2022).

Experiments:
[1] = Photorelease activity in PBS buffer at pH 7.4 assessed as release of CO using 3',6'-Bis(allyloxy)-3H-spiro(isobenzofuran-1,9'-xanthen)-3-one fluorescent probe at 500 uM irradiated with >= 365 nm Hg lamp for 30 mins in presence of PdCl2 by absorption spectroscopy; type: physicochemical; details: pH 7.4, 0.5 h
[2] = test system: B16-F10; experiment: Photorelease activity in mouse B16-F10 cells assessed as uncaging of active molecules of drug by measuring green fluorescence at 20 uM incubated for 4 hrs irradiated with >= 365 nm Hg lamp for 5 mins and further incubated for 4 hrs by propidium iodide staining based confocal laser scanning microscopy; type: functional, cell-based; details: time 8.0 hrs
[3] = Stability of compound in PBS buffer at pH 7.4 at 100 uM incubated for 72 hrs under dark condition in presence of cysteine by Reverse-phase HPLC analysis; type: physicochemical; details: read-out: Stability
[4] = Stability of compound in PBS buffer at pH 7.4 at 100 uM incubated for 72 hrs under dark condition by RP-HPLC analysis; type: physicochemical; details: read-out: Stability
[5] = Photolysis of compound in PBS buffer at pH 7.4 assessed as compound decomposition by measuring final photoproduct formation at 0.1 mM irradiated with >= 365 nm for 60 mins by RP-HPLC analysis; type: physicochemical; details: pH 7.4, 1 h, 100 µM
[6] = Photorelease ability in PBS buffer at pH 7.4 assessed as fast uncaging of CO at 100 uM irradiated with >= 365 nm Hg lamp for 60 mins by RP-HPLC analysis; type: physicochemical; details: pH 7.4, 1 h
[7] = test system: B16-F10; experiment: Cytotoxicity against mouse B16-F10 cells assessed as cell viability at 1.25 to 10 uM irradiated with >= 365 nm Hg lamp for 5 mins after 6 hrs post-treatment and further incubated for 72 hrs by MTT assay; type: functional; details: dose 1.25-10 µM, time 78 hrs
[8] = Drug uptake in mouse B16-F10 cells assessed as drug internalization by measuring blue fluorescence at 20 uM incubated for 4 hrs followed by propidium iodide staining based confocal laser scanning microscopy; type: ADME, cell-based; details: b16-f10, 4 h
[9] = Photorelease ability in PBS buffer at pH 7.4 assessed as compound decomposition at 100 uM irradiated with >= 365 nm Hg lamp upto 30 mins by UV absorption spectroscopy; type: physicochemical; details: read-out: Drug degradation
[10] = test system: B16-F10; experiment: Cytotoxicity against mouse B16-F10 cells assessed as cell viability at 10 uM irradiated with >= 365 nm Hg lamp for 5 mins after 6 hrs post-treatment and further incubated for 72 hrs by MTT assay; type: functional; details: B16-F10, light or radiation study, time 78 hrs, read-out: Activity
[11] = Photorelease ability in PBS buffer at pH 7.4 assessed as compound decomposition by measuring 1-(9-ethyl-9H-carbazol-3-y1)-2,2-dihydroxyethan-l-one photoproduct formation at 100 uM measured upto 5.5 mins of irradiation with >= 365 nm Hg lamp by RP-HPLC analysis followed by 1H-NMR analysis; type: physicochemical; details: pH 7.4, 5.5 min
[12] = Photorelease ability in CDCl3 assessed as compound decomposition by measuring (2,2'-(9-ethy1-9H-carbazole-3,6-chyl)bis(2-oxoacetaldehyde) photoproduct formation at 100 uM measured after 20 mins of irradiation with >= 365 nm Hg lamp by 1H-NMR spectroscopy; type: physicochemical
[13] = Photolysis of compound in PBS buffer at pH 7.4 assessed as compound decomposition by measuring final photoproduct formation at 0.1 mM irradiated with >= 365 nm for 20 mins by RP-HPLC analysis; type: physicochemical; details: pH 7.4, 20 min, 100 µM

| degraded at 0.5 h, 100 µM [9] | Drug degradation [11] | Drug degradation [12] | Drug degradation [13] | SMILES | Drug metabolism [1] | Drug metabolism [2] | remaining at 72 h, 100 µM [3] | remaining at 72 h, 100 µM [4] | Drug degradation [5] | Drug metabolism [6] | Activity [7] | Drug uptake [8] | viability at 10 µM [10] |
| --- | --- | --- | --- | --- | --- | --- | --- | --- | --- | --- | --- | --- | --- |
|  |  |  |  | CCn1c2ccc(C(=O)COC(=O)CCCc3ccc(N(CCCl)CCCl)cc3)cc2c2cc(-c3coc(=O)o3)ccc21 | 5.7 ppm | 100% | 93% | 96% | 88% | Active | 35% | Active |  |
| 100% |  |  |  | CCn1c2ccc(C(=O)C(O)O)cc2c2cc(-c3coc(=O)o3)ccc21 |  |  |  |  |  |  |  |  |  |
|  |  |  |  | O=C(O)CCCc1ccc(N(CCCl)CCCl)cc1 [CHLORAMBUCIL] |  |  |  |  |  |  |  |  | 80% |
|  | 100% | 100% | 93% | CCn1c2ccccc2c2cc(-c3coc(=O)o3)ccc21 | 5.9 ppm | 100% | 87% | 96% |  |  | 70% | Active |  |
